According to PubChem BioAssay (NCI):
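All cell lines were grown in 96-well plates and treated with compound for 48 hours. GI50 marks 50% less growth. The concentration for full growth arrest is given as TGI.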

What was measured:
Test in all cases: DTP human tumour cell line panel, 48 h
OVCAR-5 ovarian = tested on: OVCAR-5 ovarian
M19-MEL melanoma = tested on: M19-MEL melanoma
HCT-116 colon = tested on: HCT-116 colon
SF-539 CNS = tested on: SF-539 CNS
SK-MEL-5 melanoma = tested on: SK-MEL-5 melanoma
SNB-19 CNS = tested on: SNB-19 CNS
SNB-75 CNS = tested on: SNB-75 CNS
OVCAR-4 ovarian = tested on: OVCAR-4 ovarian
HCT-15 colon = tested on: HCT-15 colon
HCC-2998 colon = tested on: HCC-2998 colon

Row | Compound | TGI (OVCAR-5 ovarian) [µM] | TGI (M19-MEL melanoma) [µM] | TGI (HCT-116 colon) [µM] | TGI (SF-539 CNS) [µM] | TGI (SK-MEL-5 melanoma) [µM] | TGI (SNB-19 CNS) [µM] | TGI (SNB-75 CNS) [µM] | TGI (OVCAR-4 ovarian) [µM] | TGI (HCT-15 colon) [µM] | TGI (HCC-2998 colon) [µM] | GI50 (OVCAR-5 ovarian) [µM] | GI50 (HCT-116 colon) [µM] | GI50 (HCT-15 colon) [µM] | GI50 (SF-539 CNS) [µM] | GI50 (HCC-2998 colon) [µM] | GI50 (SK-MEL-5 melanoma) [µM] | GI50 (SNB-19 CNS) [µM] | GI50 (SNB-75 CNS) [µM] | GI50 (OVCAR-4 ovarian) [µM]
1 | O=C(NN1C(=O)C(Cl)C1c1ccc([N+](=O)[O-])cc1)c1ccccc1O (stereo not given) | > 100 | > 100 | > 100 | > 100 | > 100 | > 100 | > 100 | > 100 |  |  |  |  |  |  |  |  |  |  | 
2 | CC(=O)O[C@H]1CC[C@H]2[C@@H]3CC[C@H]4Nc5c(cnn5S(C)(=O)=O)C[C@]4(C)[C@H]3CC[C@]12C | > 100 |  | > 100 |  | > 100 | > 100 | > 100 | > 100 | > 100 | > 100 |  |  |  |  |  |  |  |  | 
3 | N/C(=N\N=C/c1cc(Cl)cc(Cl)c1O)NO | 33.5 | 27 | 12.3 | 8.34 | 12.5 | > 53.9 | 9.58 | 20.9 | 17.8 | 10.1 |  |  |  |  |  |  |  |  | 
4 | CCOC(=O)C1CCn2c(nc3c(=O)n(C)c(=O)n(C)c32)S1 (stereo not given) | > 100 |  | > 100 | > 100 | > 100 | > 100 | > 100 | > 100 | > 100 |  |  |  |  |  |  |  |  |  | 
5 | Cn1nc2ccc3nccc(NCCNCCCl)c3c2n1 | > 100 | > 100 | > 100 | > 100 |  | > 100 | > 100 | > 100 | > 100 | > 100 |  |  |  |  |  |  |  |  | 
6 | CCNC(=O)CCCCC(=O)c1c(C)[nH]c(/C=C2\N=C(c3ccc[nH]3)C=C2OC)c1C | 20.6 |  | 23.6 | 3.34 | 24.9 | 19.2 | 24.4 | 4.36 | 4.4 | 7.9 | 6.01 | 2.33 | 1.83 | 1.59 | 2.42 | 11.7 | 6.74 | 3.26 | 1.76
7 | COC(=O)C[C@](O)(CCC(C)(C)O)C(=O)O[C@@H]1C(OC)=C[C@]23CCCN2CCc2cc4c(cc2[C@H]13)OCO4 | 1.08 | 0.363 | 0.15 | 0.102 | 0.202 | 0.28 | 0.95 | 0.478 | 2.07 | 0.0855 |  |  |  |  |  |  |  |  | 
8 | CN(C)S(=O)(=O)c1cccc(-c2nc3sc4c(c3c(=O)[nH]2)CCCC4)c1 |  |  |  |  | > 100 | > 100 |  |  | > 100 |  |  |  | > 100 |  |  | > 100 | 2.91 |  | 
9 | O=C(/C=C/c1ccsc1)c1ccc(Cl)s1 |  |  | 60.5 | > 100 | > 100 | > 100 | > 100 | > 100 | > 100 | > 100 |  |  |  |  |  |  |  |  | 
10 | CC1=NN(C(=O)c2ccccc2)C(=O)C1N=Nc1ccccc1C(=O)O (stereo not given) | > 100 | > 100 | > 100 | > 100 | > 100 | > 100 | > 20.7 | > 55 | > 100 | > 70.6 |  |  |  |  |  |  |  |  | 
11 | CCOC(=O)CCc1c(C)c2c(O)cc(O)cc2oc1=O | > 100 | > 100 | > 100 | > 100 | > 100 | > 100 | > 100 | > 100 | > 100 | > 100 |  |  |  |  |  |  |  |  | 
